This passage reports Activity and CC50 results from ChEMBL document CHEMBL1151513, “Stereospecific synthesis of chiral acyclic analogues of guanosine” (1992).

Molecules are shown by their SMILES. Active and inactive are the calls of the source. The rule behind the calls is not given here.

The nature of assay [1]: Compound was tested for its in vitro inhibitory effect on the replication of DNA and RNA viruses at 1 mM; No inhibition. The class given is functional.
Assay [2] relates to MT4. The assay can be described thus: Compound was tested for its cytotoxic effect against MT-4 cells at 1 mM; No effect. It is filed as functional, cell-based. To be noted: Homo sapiens.
Assay [3] has as its system MT4. The assay can be described thus: Compound was tested for its cytotoxic effect against MT-4 cells at 1 mM;value between 10-100 uM. It is filed as functional. To be noted: Homo sapiens, read-out: CD50 (the source's name).
Assay [4] relates to MT4. Description: Compound was tested for its cytotoxic effect against MT-4 cells at 1 mM; 1 to 10 uM. The class given is functional. The settings on record: Homo sapiens, read-out: CD50 (the source's name).

For the molecule `Nc1nc(O)c2ncn(C(OCCO)C(O)CO)c2n1` (stereo not drawn), the result in assay [1] and in assay [2] was inactive.
Consider `Nc1nc(O)c2ncn(C(CO)OCCO)c2n1` (stereo not drawn), for which the outcome in assay [1] and in assay [2] was inactive.
Regarding `Nc1nc(O)c2ncn(C3CC(O)C(O)CO3)c2n1` (stereo not drawn), the result in assay [1] was inactive. For the same molecule, the CC50 in assay [3] is below 100 µM.
For the molecule `Nc1nc(O)c2ncn(C(CCO)OCCO)c2n1` (stereo not drawn), the result in assay [1] was inactive. For the same molecule, in assay [4], the CC50 was below 10 µM.
